Laboratory results taken from patent US20090069302A1 (SMITHKLINE BEECHAM CORPORATION, priority 2006, published 2009).

Target: T1, AXOR109 (Homo sapiens, UniProt Q8TDU6)
T1 construct: expressed in transfected cells; host or cells: melanophore cells, transfected by electroporation
T1 sequence (Q8TDU6 1-330): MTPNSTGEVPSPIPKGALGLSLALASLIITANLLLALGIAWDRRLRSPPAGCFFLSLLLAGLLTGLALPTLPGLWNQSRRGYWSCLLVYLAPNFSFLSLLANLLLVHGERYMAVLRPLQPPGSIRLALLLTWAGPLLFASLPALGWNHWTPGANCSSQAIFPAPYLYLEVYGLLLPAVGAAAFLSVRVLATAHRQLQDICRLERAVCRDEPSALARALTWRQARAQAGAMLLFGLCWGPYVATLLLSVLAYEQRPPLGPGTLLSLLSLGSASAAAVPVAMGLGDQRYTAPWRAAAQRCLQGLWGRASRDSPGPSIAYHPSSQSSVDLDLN
Assay: Human AXOR109/Melanophore Assay
Format: cell-based
Conditions: melanophore assay; for EC50: AXOR109 transfected melanophores; for Emax: 1 h, normalized to alpha-MSH system max
Experimental: AXOR109 is a Gs-coupled receptor and therefore increases intracellular cAMP leading to melanosome dispersion. Compounds of the present invention were characterized in a melanophore assay as described in Jayawickreme C K, et al., Current Protocols in Pharmacology (2005) 12.9.1-12.9.16. Briefly, melanophore cells are transfected by electroporation with AXOR109 expressing cDNA. Cells are then plated in 384 well clear bottom plates at 8E3 cells per well in 50 μl of conditioned fibroblast media (CFM). Compounds to be tested are serially diluted 3-fold in DMSO and further diluted 1:100 with melanophore assay buffer (MAB)+10 nM Melatonin to yield 11 point concentration response curves. Following 2 hour incubation with MAB+1% DMSO+10 nM Melatonin, initial transmittance is read on a TwisterII/Spectramax plate reader. Compounds are then added to the cells and incubated for 1 hour, and final transmittance is read as before. Results are compared to vehicle (MAB+1% DMSO+10 nM Melatonin) and to a positive control (MAB+1% DMSO+10 nM Melatonin+200 nM alpha-MSH). Data are calculated for each well as follows: 1-(Transmitance-final/Transmitance-initial). Each well result is then normalized to alpha-MSH, the system max control for Gs/Gq coupled receptors using the following equation: (ObjX−Control1)/(Control2−Control1)*100. The percent system max is used to generate the pEC50 using the equation: y=((Vmax*x̂n)/(K̂n+x̂n))+Y2. Acceptable Z-prime values should be >0.4. Compounds of the present invention have a pEC50≧5.0 in the above described assay.

| Compound | EC50 [nM] | Emax [%] |
| --- | --- | --- |
| COc1ccc(S(=O)(=O)N2C[C@H](C)N(S(=O)(=O)c3ccc(OC)c(OC)c3)C[C@H]2C)cc1OC [Example 22, trans-1,4-bis{[3,4-bis(methyloxy)phenyl]sulfonyl}-2,5-dimethylpiperazine] | 1260 to 10000 | 51 to 75 |
| CCc1cc(S(=O)(=O)N2CCN(S(=O)(=O)c3ccc(OC)c(OC)c3)CC2)ccc1OC [Example 64, 1-{[3,4-bis(methyloxy)phenyl]sulfonyl}-4-{[3-ethyl-4-(methyloxy)phenyl]sulfonyl}piperazine] | 126 to 1000 | 76 to 100 |
| COc1ccc(S(=O)(=O)N2CCCCC(N(C)S(=O)(=O)c3ccc(OC)c(OC)c3)C2)cc1OC (stereo not shown) [Example 92] | 1260 to 10000 | 51 to 75 |
| COc1ccc(S(=O)(=O)N2CC[C@@H](N(C)S(=O)(=O)c3ccc(OC)c(OC)c3)C2)cc1OC [Example 85] | 126 to 1000 | 51 to 75 |
| CCN(C[C@@H]1CCCN1S(=O)(=O)c1ccc(OC)c(OC)c1)S(=O)(=O)c1ccc(OC)c(OC)c1 [Example 95, N-[((2S)-1-{[3,4-bis(methyloxy)phenyl]sulfonyl}-2-pyrrolidinyl)methyl]-N-ethyl-3,4-bis(methyloxy)benzenesulfonamide] | 126 to 1000 | 76 to 100 |
| COc1ccc(S(=O)(=O)N2CCC(N(CC3CCC3)S(=O)(=O)c3ccc(OC)c(OC)c3)C2)cc1OC (stereo not shown) [Example 58, N-(1-{[3,4-bis(methyloxy)phenyl]sulfonyl}-3-pyrrolidinyl)-N-(cyclobutylmethyl)-3,4-bis(methyloxy)benzenesulfonamide] | 1260 to 10000 | 76 to 100 |
| COc1ccc(S(=O)(=O)N2C[C@H](C)N(S(=O)(=O)c3ccc4c(c3)OCO4)C[C@@H]2C)cc1OC [Example 70, (2S,5S)-1-(1,3-benzodioxol-5-ylsulfonyl)-4-{[3,4-bis(methyloxy)phenyl]sulfonyl}-2,5-dimethylpiperazine] | 126 to 1000 | > 100 |
| CCc1cc(S(=O)(=O)N(C)CCN(C)S(=O)(=O)c2ccc(OC)c(OC)c2)ccc1OC [Example 43, N-{2-[{[3,4-bis(methyloxy)phenyl]sulfonyl}(methyl)amino]ethyl}-N-methyl-3-ethyl-4-(methyloxy)benzenesulfonamide] | 126 to 1000 | 0 to 50 |
| CCN(C[C@H]1CCCN1S(=O)(=O)c1ccc(OC)c(OC)c1)S(=O)(=O)c1ccc(OC)c(OC)c1 [Example 98, N-[((2R)-1-{[3,4-bis(methyloxy)phenyl]sulfonyl}-2-pyrrolidinyl)methyl]-N-ethyl-3,4-bis(methyloxy)benzenesulfonamide] | < 126 | 76 to 100 |
| COc1ccc(S(=O)(=O)N(C)CC(C)N(C)S(=O)(=O)c2ccc(OC)c(OC)c2)cc1OC (stereo not shown) [Example 44, N,N′-1,2-propanediylbis[N-methyl-3,4-bis(methyloxy)benzenesulfonamide]] | 126 to 1000 | 51 to 75 |
| COc1ccc(S(=O)(=O)N(C)C[C@@H]2CCCN2S(=O)(=O)c2ccc(OC)c(OC)c2)cc1OC [Example 94, N-[((2S)-1-{[3,4-bis(methyloxy)phenyl]sulfonyl}-2-pyrrolidinyl)methyl]-N-methyl-3,4-bis(methyloxy)benzenesulfonamide] | 1260 to 10000 | 76 to 100 |
| CCN([C@@H]1CCN(S(=O)(=O)c2ccc(OC)c(OC)c2)C1)S(=O)(=O)c1ccc(OC)c(OC)c1 [Example 60, N-((3R)-1-{[3,4-bis(methyloxy)phenyl]sulfonyl}-3-pyrrolidinyl)-N-ethyl-3,4-bis(methyloxy)benzenesulfonamide] | < 126 | 76 to 100 |
| CCCN(C[C@H]1CCCN1S(=O)(=O)c1ccc(OC)c(OC)c1)S(=O)(=O)c1ccc(OC)c(OC)c1 [Example 99, N-[((2R)-1-{[3,4-bis(methyloxy)phenyl]sulfonyl}-2-pyrrolidinyl)methyl]-3,4-bis(methyloxy)-N-propylbenzenesulfonamide] | < 126 | 76 to 100 |
| COc1cccc(S(=O)(=O)N(C)CCN(C)S(=O)(=O)c2ccc(OC)c(OC)c2)c1 [Example 10, N-methyl-N-[2-(methyl{[3-(methyloxy)phenyl]sulfonyl}amino)ethyl]-3,4-bis(methyloxy)benzenesulfonamide] | 126 to 1000 | 76 to 100 |

Next, values leading:

| EC50 [nM] | Emax [%] | Compound |
| --- | --- | --- |
| 126 to 1000 |  | COc1ccc(S(=O)(=O)N2C[C@H](C)N(S(=O)(=O)c3ccc(OC)c(OC)c3)C[C@@H]2C)cc1F [Example 67, (2S,5S)-1-{[3,4-bis(methyloxy)phenyl]sulfonyl}-4-{[3-fluoro-4-(methyloxy)phenyl]sulfonyl}-2,5-dimethylpiperazine] |
| 1260 to 10000 | 0 to 50 | COc1ccc(S(=O)(=O)N2CCN(S(=O)(=O)c3ccc(OC)c(OC)c3)C2=O)cc1OC [Example 23, 1,3-bis{[3,4-bis(methyloxy)phenyl]sulfonyl}-2-imidazolidinone] |
| 126 to 1000 | 76 to 100 | COc1ccc(S(=O)(=O)N2C[C@H](C)N(S(=O)(=O)c3ccc4c(c3)OCCO4)C[C@@H]2C)cc1OC [Example 71, (2S,5S)-1-{[3,4-bis(methyloxy)phenyl]sulfonyl}-4-(2,3-dihydro-1,4-benzodioxin-6-ylsulfonyl)-2,5-dimethylpiperazine] |
| 126 to 1000 | 51 to 75 | CCN(CCN(C1CC1)S(=O)(=O)c1ccc(OC)c(OC)c1)S(=O)(=O)c1ccc(OC)c(OC)c1 [Example 90] |
| 1260 to 10000 | 51 to 75 | COc1ccc(S(=O)(=O)N2CCN(S(=O)(=O)c3ccc(OC)c(OC)c3)C(=O)C2=O)cc1OC [Example 27, 1,4-bis{[3,4-bis(methyloxy)phenyl]sulfonyl}-2,3-piperazinedione] |
| 126 to 1000 | 0 to 50 | COc1ccc(S(=O)(=O)N(C)CCN(C)S(=O)(=O)c2ccc(OC)c(OC)c2)cc1F [Example 11, N-{2-[{[3,4-bis(methyloxy)phenyl]sulfonyl}(methyl)amino]ethyl}-3-fluoro-N-methyl-4-(methyloxy)benzenesulfonamide] |
| 1260 to 10000 | 51 to 75 | COc1cccc(S(=O)(=O)N2C[C@@H](C)N(S(=O)(=O)c3ccc(OC)c(OC)c3)[C@@H](C)C2)c1 [Example 33, 1-{[3,4-bis(methyloxy)phenyl]sulfonyl}-2,6-cis-dimethyl-4-{[3-(methyloxy)phenyl]sulfonyl}piperazine] |
| 1260 to 10000 | 76 to 100 | CCCN([C@H]1CCN(S(=O)(=O)c2ccc(OC)c(OC)c2)C1)S(=O)(=O)c1ccc(OC)c(OC)c1 [Example 61, N-((3S)-1-{[3,4-bis(methyloxy)phenyl]sulfonyl}-3-pyrrolidinyl)-3,4-bis(methyloxy)-N-propylbenzenesulfonamide] |
| 126 to 1000 | 0 to 50 | COc1ccc(S(=O)(=O)N(C)CCN(C)S(=O)(=O)c2ccc(OC)c(OC(F)(F)F)c2)cc1OC [Example 31, N-methyl-N-{2-[methyl({4-(methyloxy)-3 [(trifluoromethyl)oxy]phenyl}sulfonyl)amino]ethyl}-3,4-bis(methyloxy)benzenesulfonamide] |
| 1260 to 10000 | 0 to 50 | COc1ccc(S(=O)(=O)N2CCCN(S(=O)(=O)c3ccc(OC)c(OC)c3)CC2)cc1F [Example 7, 1-{[3,4-bis(methyloxy)phenyl]sulfonyl}-4-{[3-fluoro-4-(methyloxy)phenyl]sulfonyl}hexahydro-1H-1,4-diazepine] |
| 1260 to 10000 | 51 to 75 | CCN(C1CCCN(S(=O)(=O)c2ccc(OC)c(OC)c2)C1)S(=O)(=O)c1ccc(OC)c(OC)c1 (stereo not shown) [Example 93, N-(1-{[3,4-bis(methyloxy)phenyl]sulfonyl}-3-piperidinyl)-N-ethyl-3,4-bis(methyloxy)benzenesulfonamide] |
| 1260 to 10000 | 51 to 75 | COc1ccc(S(=O)(=O)N2CCCN(S(=O)(=O)c3ccc4c(c3)OCCO4)CC2)cc1OC [Example 8, 1-{[3,4-bis(methyloxy)phenyl]sulfonyl}-4-(2,3-dihydro-1,4-benzodioxin-6-ylsulfonyl)hexahydro-1H-1,4-diazepine] |
| < 126 | > 100 | COc1ccc(S(=O)(=O)N2C[C@@H](C)N(S(=O)(=O)c3ccc(OC)c(OC)c3)[C@@H](C)C2)cc1OC [Example 79, cis-1,4-bis{[3,4-bis(methyloxy)phenyl]sulfonyl}-2,6-dimethylpiperazine] |
| 126 to 1000 | 51 to 75 | COc1ccc(S(=O)(=O)N2CCN(S(=O)(=O)c3ccc(OC)c(OC)c3)[C@@H](C)[C@H]2C)cc1OC [Example 40, 1,4-bis{[3,4-bis(methyloxy)phenyl]sulfonyl}-2,3-dimethylpiperazine] |
